Experimental data reported in patent publication US10329542B2, “HBV RNAse H purification and enzyme inhibitors” (Saint Louis University, priority 2012, dated 2019).
Entries after “also recorded” stand apart in the source; their conditions may differ.

What was measured:
[1] = target: T1, chimeric HBV:HIV RNAseH HHC1 (Hepatitis B virus genotype D subtype ayw, UniProt P03156, DELINS787-795VNQIIEQLIVK/INS679M); experiment: Oligonucleotide-directed RNAseH cleavage assay, chimeric HHC1; type: biochemical; details: read-out: Residual activity at 10 uM, HHC1
T1 construct: HHC1 is an HRHPL derivative; made in house; host or cells: E. coli BL21 codon+
Procedure, shortened: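 Bacterially expressed C-terminal His-tagged HHC1 (HRHPL, HBV genotype D pol 684-845, with residues 800-808 swapped for HIV RNAseH helix D) extract mixed with internally 32P-labeled DRF+ RNA and oligonucleotide D2507- (D2526+ negative control), 42 °C, 90 min. Products resolved by 12% SDS-PAGE, autoradiographed and quantified; compounds added in DMSO, DMSO vehicle control.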

HBV genotype A = experiment: HBV replication inhibition in Huh7 cells, Southern blot, genotype A; type: cell-based, Hepatitis B virus; details: for Inhibition of HBV replication, RNA:DNA heteroduplex signature: 10 μM, Huh7 cells, Southern blot
Description: Huh7 cells were maintained in Dulbecco's modified Eagle's medium with 10% fetal bovine serum at 37° C. in 5% CO2. Cells were seeded into 60 mm dishes and transfected at 70% confluency with 2.6 μg of plasmids using TransIT-LT1 (Mirus, Inc.). Test compounds were added the morning following transfection at 10 or 50 μM, and fresh medium containing the compounds was provided every 1-2 days. Four or five days post-transfection HBV cores were isolated by lysis of the cells in 10 mM Tris pH 7.5, 1 mM EDTA, 0.25% NP40, 50 mM NaCl, and 8% sucrose followed by sedimentation through a 30% sucrose cushion as described (Travis, et al., 1998). Viral DNAs were isolated from cytoplasmic core particle preparations by proteinase K digestion followed by phenol/chloroform extraction as described (Gong et al., 2001). Duplicate aliquots of the nucleic acids were treated with 2 U E. coli DNAse-free RNAseH (Invitrogen) at 37° C. for 30 min. or were mock treated. The nucleic acid samples were resolved by electrophoresis on 1.2% agarose gels and detected by Southern blotting with ^32P-labeled HBV DNA as a probe.
Finally, the inventors asked whether HBV RNAseH inhibitors could block HBV replication in culture. Huh7 cells were transfected with genomic expression vectors for HBV genotype A or D isolates, the cells were treated with 10 or 50 μM compounds, and viral nucleic acids were isolated from intracellular HBV capsids after four days. Replicate nucleic acid aliquots were mock treated or treated with DNAse-free E. coli RNAseH to destroy RNA:DNA heteroduplexes, and then HBV DNAs were detected by Southern blotting. The signature of RNAseH inhibition is accumulation of RNA:DNA heteroduplexes that migrate as double-stranded species without exogenous RNAseH treatment but as faster-migrating single-stranded DNAs following RNAseH treatment.
Inhibition of HBV replication by βTJ was measured as recently described (Tavis et al., 2013). Briefly, Huh7 cells were transfected with HBV genomic expression vectors using TransIT-LT1 (Mirus, Inc.), βTJ was added 12-16 hrs post-transfection at the indicated concentrations, and fresh medium containing the compounds was provided two days later. HBV core particles were isolated four days post-transfection by detergent lysis of the cells and sedimentation through a sucrose cushion as described (Tavis et al., 1998). Viral DNAs were isolated from cytoplasmic core particle preparations by proteinase K digestion followed by phenol/chloroform extraction as described (Gong et al., 2001). Duplicate aliquots of each nucleic acid preparation were treated with 2 U E. coli DNAse-free RNAseH (Invitrogen) at 37° C. for 30 min. or were mock treated. The nucleic acids were resolved by electrophoresis on 1.2% agarose gels and HBV DNAs were detected by Southern blotting with ^32P-labeled double-stranded HBV DNA as a probe to detect both the plus- and minus-polarity HBV DNA strands. HBV core protein (HBc) and β-actin in the cytoplasmic lysates were monitored by western analysis using an anti-HBc antibody (HBP-023-9, Austral Biologicals) and a mouse […] monoclonal antibody from ZSGB-BIO Co., Ltd., respectively. HBV surface antigen (HBs) proteins were quantified by ELISA (Shanghai Kehua Biotech).

T1 sequence (P03156 680-786, added parts left off, stated change not applied): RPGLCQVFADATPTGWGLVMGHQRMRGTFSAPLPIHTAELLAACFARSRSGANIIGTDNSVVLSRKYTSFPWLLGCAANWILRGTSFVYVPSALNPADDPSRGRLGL

Compound: Cc1nnc(C(=O)NC(C)(C)c2nc(C(=O)NCc3ccc(F)cc3)c(O)c(=O)n2C)o1 [Compound 11, Raltegravir, reference compound]
- remaining activity at 10 µM [1]: 59 ± 23%

Compound: NCc1ccc(-c2ccc(Cc3cc(=O)n(O)c4ncccc34)cc2)cc1 [Compound 12, napthyridinone]
- Inhibition of HBV replication, RNA:DNA heteroduplex signature (HBV genotype A): blocked production of the slowest-migrating double-stranded forms; also recorded: inhibited HBV replication in cell culture; also recorded: inhibited production of the slowest-migrating (mature) viral DNA

Compound: [N-]=[N+]=NCc1cccc(C(=O)CC(=O)C(=O)O)c1 [Compound 40]
- Inhibition of HBV replication (HBV genotype A; 50 μM): inhibited replication in another experiment

Compound: CC(C)c1ccc(O)c(=O)c(O)c1 [Compound 46, beta-thujaplicinol]
- Inhibition of HBV replication, RNA:DNA heteroduplex signature (HBV genotype A): inhibited HBV replication in cell culture; also recorded: inhibited production of the slowest-migrating (mature) viral DNA
- Accumulation of RC DNA and RNA:DNA heteroduplexes (HBV genotype A; 2.5, 10, 15, and 20 μM, four days): suppressed accumulation of the RC DNA
- Total amount of viral DNA detected (HBV genotype A; 15 and 20 μM): suppressed

Compound: Cc1c2cc(O)c(=O)cc-2oc2cc(O)c(O)cc12 [Compound 8]
- Inhibition of HBV replication, RNA:DNA heteroduplex signature (HBV genotype A): did not affect HBV replication

Compound: COc1cc2c(cc1Cc1cccc(Cl)c1F)c(=O)c(C(=O)O)cn2[C@H](CO)C(C)C [Compound 10, Elvitegravir, reference compound]
- remaining activity at 10 µM [1]: 35 ± 7%

Compound: COc1ccc2ccccc2c1C=NNC(=O)c1cc(O)c(O)c(O)c1 [Compound 14]
- Inhibition of HBV replication (HBV genotype A; 25 μM): inhibited HBV replication in one experiment
